The first experiment concerns the target T1, P-selectin/PSGL-1 interaction (Homo sapiens, UniProt P16109).
T1 construct: comprised of the lectin and epidermal growth factor-like (EGF) domains expressed in CHO cells; made in house; host or cells: CHO cells (P-LE)
T1 sequence (P16109 42-198): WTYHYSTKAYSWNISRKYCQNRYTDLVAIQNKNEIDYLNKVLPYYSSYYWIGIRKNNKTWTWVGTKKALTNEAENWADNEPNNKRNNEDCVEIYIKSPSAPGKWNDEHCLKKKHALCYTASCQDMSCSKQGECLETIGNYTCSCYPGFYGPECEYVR
The experiment can be described thus: Biacore P-selectin/PSGL-1 inhibition assay (surface plasmon resonance). It counts as binding. The settings on record: 250 uM test compound; 500 nM P.LE; immobilized biotinylated PSGL-1 19ek; 10% DMSO; pH 7.4; 25° C. On the procedure: Surface plasmon resonance assays were performed on a Biacore 3000 instrument (Biacore Inc. Piscataway, N.J.) at 25° C. at a flow rate of 30 μL/minute and each assay consisted of a 60-second equilibration, a 60-μL sample injection (kinject), and a 300-second dissociation.
A purified, monomeric, truncated form of human PSGL-1, “19ek”, that contained all the necessary P-selectin binding determinants (see Goetz, et al., J Cell Biol., 1997, 137: 509-519; and Sako, et al., Cell, 1995, 83: 323-331) was biotinylated via amine chemistry (Sulfo-NHS-LC-Biotin, Peirce) at a unique C-terminal lysine residue (see Somers, et al., Cell, 2000, 103: 467-479) and immobilized on a Biacore SA sensor chip (Biacore Inc.), using an HBS-EP buffer (Biacore Inc.), and the target 600-700 RU. The coated chip was re-equilibrated with an HBS-P buffer (Biacore Inc.) to which 1 mM CaCl2 and 1 mM MgCl2 (both from Fisher) were added to ensure sufficient calcium for the calcium-dependent interaction between the receptor and the ligand.
Test compounds were incubated for 1 hour in a 1.1× Biacore assay buffer. Each solution was centrifuged through a 0.2 μm filter, using a 96-well plate format (Millipore). Glycyrrhizin tri-sodium salt (TCl) was prepared as a positive control in parallel with the test compounds, in the same manner described above.
A soluble recombinant truncated form of human P-selectin, P-LE, comprised of the lectin and epidermal growth factor-like (EGF) domains expressed in CHO cells (see Somers, et al., Cell, 2000, 103: 467-479) was added to each filtered test compound solution. Final concentrations of reagents were 500 nM P.LE, 250 or 500 μM test compound (depending on structure) or 1 mM glycyrrhizin, 10% DMSO, and 1× Biacore buffer ([…], 150 mM NaCl, 1 mM CaCl2, and 1 mM MgCl2 (all reagents from Fisher)), with a pH of 7.4. Compounds active at 250 μM were titrated to further define activity. Test samples were supplied to the Biacore instrument in a 96-well plate.
The Biacore raw data file was exported as a text file to an Excel spreadsheet, where the buffer blanks bracketing the samples were averaged for each Biacore instrument flow cell (Fc), and subtracted from the averaged uninhibited P.LE samples and from all the other samples. The reference signal from Fc1 (uncoated) was then subtracted from its corresponding active (coated) signal for each injection, a process known as double referencing (see Myszka, J Mol. Recognit., 1999, 12(5): 279-284). The percent inhibition of binding was calculated by dividing the reference-subtracted inhibited signal by the reference-subtracted uninhibited signal, subtracting this value from 1, and multiplying the resulting value by 100. The replicate percent inhibition values were averaged and expressed as the mean±standard deviation. The inter-experiment standard deviation of calculated percent inhibitions in the Biacore assay was ±5.
As a reminder, the inhibition is the share of the control response that was lost under treatment. A lower inhibition goes with a response near the control. Molecule `O=C(O)c1c(O)c(C2Cc3ccccc32)nc2c(C(F)(F)F)cccc12` (stereo not drawn) [Compound 1, 2-(1,2-dihydrocyclobutabenzen-1-yl)-3-hydroxy-8-(trifluoro-methyl)quinoline-4-carboxylic acid] had an inhibition at 250 µM of 45%.

Consider `O=C(O)c1c(O)c(C2Cc3ccccc3C2)nc2c(C(F)(F)F)cccc12` [Compound 5, 3-hydroxy-2-indan-2-yl-8-trifluoromethyl-quinoline-4-carboxylic acid], for which the inhibition at 250 µM worked out at 35%.

Regarding `Cc1ccc2c(C(=O)O)c(O)c(C3Cc4ccccc43)nc2c1C` (stereo not drawn) [Compound 2, 2-(1,2-dihydrocyclobutabenzen-1-yl)-3-hydroxy-7,8-dimethyl-quinolin-4-carboxylic acid], testing at 250 µM gave an inhibition of 17%.

For `CC(C)c1cccc2c(C(=O)O)c(O)c(C3Cc4ccccc4C3)nc12` [Compound 4, 3-hydroxy-2-indan-2-yl-8-isopropyl-quinolin-4-carboxylicacid], testing at 250 µM gave an inhibition of 48%.

For `Cc1ccc2c(C(=O)O)c(O)c(C3Cc4ccccc4C3)nc2c1C` [Compound 3, 3-hydroxy-2-indan-2-yl-7,8-dimethyl-quinolin-4-carboxylicacid], the inhibition at 250 µM amounted to 11%.

Still in this experiment, the particulars now being: positive control in the Biacore assay.
As usually defined, the IC50 is the midpoint of a concentration-inhibition curve. Read a high IC50 as a need for much substance. `CC1(C)[C@@H](O[C@H]2O[C@H](C(=O)O)[C@@H](O)[C@H](O)[C@H]2O[C@@H]2O[C@H](C(=O)O)[C@@H](O)[C@H](O)[C@H]2O)CC[C@]2(C)[C@H]3C(=O)C=C4[C@@H]5C[C@@](C)(C(=O)O)CC[C@]5(C)CC[C@@]4(C)[C@]3(C)CC[C@@H]12` [Glycyrrhizin, reference compound]: 1000 µM corresponded to half-maximal inhibition (IC50).

(Values after patent US20080242700A1, “Methods and Compositions for Selectin Inhibition” (Wyeth, priority 2007, published 2008).)
